Source: patent US9950026B2, “Methods for reducing oxidative damage” (Cornell Research Foundation, Inc., priority 2004, dated 2018)
Where a SMILES comes first, the peptide text is derived from it. [ ]: non-standard residue; d: D form. Dmt = Cc1cc(O)cc(C)c1C[C@H](N)C(=O)O

Legend:
Caco-2 = assay: Cellular uptake of [3H][Dmt1]DALDA; format: in vitro ADME, human; settings: estimated
Description: The cellular uptake of [^3H][Dmt^1]DALDA was studied using a human intestinal epithelial cell line (Caco-2), and confirmed with SH-SY5Y (human neuroblastoma cell), HEK293 (human embryonic kidney cell) and CRFK cells (kidney epithelial cell). Monolayers of cells were grown on 12-well plates (5×10^5 cells/well) coated with collagen for 3 days. On day 4, cells were washed twice with pre-warmed HBSS, and then incubated with 0.2 ml of HBSS containing either 250 nM [^3H][Dmt^1]DALDA at 37° C. […] 4° C. for various times up to 1 h.
In a separate experiment, cells were incubated with a range of [Dmt^1]DALDA concentrations (1 μM-3 mM) for 1 h at 37° C. At the end of the incubation period, cells were washed 4 times with HBSS, and 0.2 ml of 0.1N NaOH with 1% SDS was added to each well. The cell contents were then transferred to scintillation vials and radioactivity counted. To distinguish between internalized radioactivity from surface-associated radioactivity, an acid-wash step was included. Prior to cell lysis, cells were incubated with 0.2 ml of 0.2 M acetic acid/0.05 M NaCl for 5 min on ice.

N2A cells [1] = assay: Pan-caspase activity (FLICA kit) after tBHP; format: cell-based, murine
Description: FIG. 21A-B. SS-31 prevented caspase activation in N2A cells treated with tBHP. […]
[…] All treatments were carried out in quadriplicates. […] Cells were gently lifted from the plates with a cell detachment solution (Accutase, Innovative Cell Technologies, Inc., San Diego, Calif.) and washed twice in PBS. Caspase activity was assayed using the FLICA kit (Immunochemistry Technologies LLC, Bloomington, Minn.) According to the manufacturer's recommendation, cells were resuspended (approx. 5×10^6 cells/ml) in PBS and labeled with pan-caspase inhibitor FAM-VAD-FMK for 1 h at 37° C. under 5% CO2 and protected from the light. Cells were then rinsed to remove the unbound reagent and fixed. Fluorescence intensity in the cells was measured by a […] (Beckman-Coulter XL, Beckman Coulter, Inc., Fullerton, Calif.) using the standard emission filters for green (FL1). For each run, 10,000 individual events were collected and stored in list-mode files for off-line analysis.

[2] = test system: Mouse pancreatic islet cells; assay: tBHP oxidative damage in islet cells (TMRM, DCF); format: cell-based; settings: 25 μM tBHP, 1 nM SS-31
Description: Mouse pancreatic islet cells were untreated (a), or treated with 25 μM tBHP without or with 1 nM SS-31 (c). Mitochondrial potential was measured by TMRM (red) and reactive oxygen species were measured by DCF (green) using confocal microscopy.

N2A cells [3] = assay: Phosphatidylserine translocation, Annexin V and propidium iodide staining after tBHP; format: cell-based, murine; settings: 50 μM tBHP, 1 nM SS-31, 6 h
Description: FIG. 19A-19C. […] N2A cells were incubated with 50 μM tBHP for 6 h and stained with Annexin V and propidium iodide (PI). […] Combined staining with Annexin V and PI (red) indicate late apoptotic cells.
The translocation of phosphatidylserine from the inner leaflet of the plasma membrane to the outer leaflet is observed early in the initiation of apoptosis. This can be observed with Annexin V, a phospholipid binding protein with high affinity for phosphatidylserine.

DBA/2 islet cells = assay: Islet cell uptake of [3H]SS-31; format: in vitro ADME, mouse
Description: FIG. 33A-33B. SS peptides penetrate islet cells, co-localize with mitochondria and preserve islet mitochondrial membrane potential. (A) Islet cell uptake of SS-31. DBA/2 islet cells were incubated with 1 nM of tritium labeled SS-31 and 1 μM unlabeled SS-31 at 37° C. for 1 h. Following incubation, radioactivity was measured in the medium and in cell lysates and the radioactive counts in the medium were subtracted from radioactive counts in the cell lysate and normalized to protein content. In four consecutive experiments, the mean±(SE) [^3H]SS-31 uptake was 70.2+/31 10.3 pmol/mg, of proteins (B)(i-iv) SS-31 preserves islet mitochondrial potential. DBA/2 mice were treated with SS-31 (3 mg/kg s.c. BID) or vehicle control 24 hours prior to pancreas harvest for islet isolation. SS-31 treated groups had 1 nM SS-31 added to the islet isolation reagents. Following isolation, TMRM uptake was evaluated using confocal laser scanning microscopy.
Islets are tightly adherent cell clusters and entry of peptides/proteins may be impaired given their architecture.

[4] = test system: G93A transgenic familial ALS mice; assay: Motor performance by rotarod in ALS mice; format: in vivo; settings: between day 100 and 130
N2A cells [5] = assay: Nuclear condensation (Hoechst) after tBHP; format: cell-based, murine; settings: 50 μM tBHP, 12 h
Description: FIG. 20A-20C. […] (A)(a-c; a′-c′) N2A cells were treated with 50 μM tBHP alone or with SS-31 for 12 h. Cells were stained with Hoechst 33342 for 20 min., fixed, and imaged by fluorescent microscopy. (a) Untreated cells show uniformly stained nuclei (a′). […] (c) Cells treated with tBHP and 1 nM SS-31 had less nuclear changes (c′). […] Apoptotic cells were counted using MetaMorph software. *P<0.01 compared to untreated cells; *P<0.01 compared to tBHP alone. […] SH-SY5Y cells were treated with 25 μM tBHP for 24 h. *P<0.01 compared to untreated cells; *P<0.01 compared to tBHP alone.
The morphological appearance of cells treated with tBHP was also consistent with apoptosis. N2A cells incubated with 50 μM tBHP for 12 h became rounded and shrunken (FIG. 20A, panel b). […] These nuclear changes were abolished by concurrent treatment with 1 nM SS-31 (FIG. 20A, panel c′).

[6] = test system: C57BL/6 mice subjected to MCAO; assay: Infarct size, swelling and cerebral blood flow after MCAO; format: in vivo; settings: for reduction in infarct volume: 2 mg/kg i.p., 3 days after ischemia
Description: FIG. 32A-32F. Effect of SS-31 peptide on ischemia-induced infarct size and swelling in C57BL/6 mice. Shown are representative serial sections (1.2 mm apart) stained with Cresyl Violet from mice subjected to 30 min (A) and 20 min (B) MCAO and treated with vehicle (Veh) or SS-31 (2 mg/kg body weight) immediately after reperfusion, 6 h, 24 h, and 48 h.
To address whether SS-31-induced attenuation in GSH depletion is associated with neuroprotection, mice were subjected to 30 or 20 min MCAO and then treated with vehicle or SS-31 (2 mg/kg, i.p.) upon reperfusion) and at 6 h, 24 h, 48 h after MCAO. Infarct volumes and hemispheric swelling were determined at 3 days after ischemia.

2′,6′-Dmt-Arg-Phe-Lys-NH2 [SS-02]
intracellular concentration relative to extracellular concentration (Caco-2): approximately 50 times

Cc1cc(O)cc(C)c1C[C@H](NC(=O)[C@H](N)CCCNC(=N)N)C(=O)N[C@@H](CCCCN)C(=O)N[C@@H](Cc1ccccc1)C(N)=O [SS-31, D-Arg-2′6′-Dmt-Lys-Phe-NH2] (H-[dR][Dmt]KF-NH2; N-terminus assumed)
increase in pan-caspase activity (N2A cells [1]; 100 μM tBHP, 24 h): dose-dependently prevented
caspase activity (N2A cells [1]; t-BHP 12 h): dose-dependently inhibited
oxidative damage caused by tBHP [2]: reduces oxidative damage
Annexin V-positive cells (N2A cells [3]): reduction
propidium iodide staining (N2A cells [3]): no propidium iodide staining
penetration of intact mouse islets (DBA/2 islet cells): readily penetrates
motor performance (rotarod) [4]: significantly improved
number of apoptotic cells (N2A cells [5]): dose-dependently reduced
nuclear changes (fragmentation and condensation) (N2A cells [5]; 1 nM SS-31): abolished
reduction in infarct volume ([6]; 20 min ischemia): 30%
reduction in infarct volume ([6]; 30 min ischemia): 24%
hemispheric swelling ([6]; both 30 and 20 min ischemic paradigms): significantly attenuated
